Source: US12240838B2, “Inhibiting agents for Bruton's tyrosine kinase” (BIOGEN MA INC., priority 2019, dated 2025)

Experiments:
BTK [1] = biological target: T1, BTK (Homo sapiens (Human), UniProt Q06187); experiment: In Vitro BTK Kinase Assay: BTK-POLYGAT-LS ASSAY; assay type: biochemical; conditions: ATP 10 μM, polyGAT 100 nM, BTK 0.25 nM, 30 minutes
Protocol: The purpose of the BTK in vitro assay is to determine compound potency against BTK through the measurement of IC50. […] The BTK kinase reaction was done in a black 96 well plate (costar 3694). For a typical assay, a 24 μL aliquot of a ATP/peptide master mix (final concentration; ATP 10 μM, polyGAT 100 nM) in kinase buffer (10 mM Tris-HCl pH 7.5, 10 mM MgCl2, 200 μM […], 5 mM DTT, 0.01% Triton X-100, and 0.2 mg/ml casein) is added to each well. Next, […] of a 4-fold, 40× compound titration in 100% DMSO solvent is added, followed by adding 15 μL of BTK enzyme mix in 1× kinase buffer (with a final concentration of 0.25 nM). The assay is incubated for 30 minutes before being stopped with […] of a 50 mM EDTA solution. Aliquots (5 μL) of the kinase reaction are transferred to a low volume white 384 well plate (Coming 3674), and […] of a 2× detection buffer (Invitrogen PV3574, with 4 nM Tb-PY20 antibody, Invitrogen PV3552) is added. The plate is covered and incubated for 45 minutes at room temperature. Time resolved fluorescence (TRF) on Molecular Devices M5 (332 nm excitation; 488 nm emission; 518 nm fluorescein emission) is measured.

BTK [2] = biological target: T1, BTK; experiment: In Vitro PD Assay in Human Whole Blood (pBTK assay); assay type: cell-based; conditions: 37° C. for 30 min, 50% inhibition of ECL signal
Protocol: Human heparinized venous blood was purchased from Bioreclamation, Inc. or SeraCare Life Sciences and shipped overnight. Whole blood was aliquoted into 96-well plate and “spiked” with serial dilutions of test compound in DMSO or with DMSO without drug. The final concentration of DMSO in all wells was 0.1%. The plate was incubated at 37° C. for 30 min. Lysis buffer containing protease and phosphatase inhibitors was added to the drug-containing samples and one of the DMSO-only samples (+PPi, high control), while lysis buffer containing protease inhibitors was added to the other DMSO-only samples (−PPi, low control). All of the lysed whole blood samples were subjected to the total BTK capture and phosphotyrosine detection method described in US20160311802, incorporated herein by reference.

T1 sequence (Q06187 whole entry): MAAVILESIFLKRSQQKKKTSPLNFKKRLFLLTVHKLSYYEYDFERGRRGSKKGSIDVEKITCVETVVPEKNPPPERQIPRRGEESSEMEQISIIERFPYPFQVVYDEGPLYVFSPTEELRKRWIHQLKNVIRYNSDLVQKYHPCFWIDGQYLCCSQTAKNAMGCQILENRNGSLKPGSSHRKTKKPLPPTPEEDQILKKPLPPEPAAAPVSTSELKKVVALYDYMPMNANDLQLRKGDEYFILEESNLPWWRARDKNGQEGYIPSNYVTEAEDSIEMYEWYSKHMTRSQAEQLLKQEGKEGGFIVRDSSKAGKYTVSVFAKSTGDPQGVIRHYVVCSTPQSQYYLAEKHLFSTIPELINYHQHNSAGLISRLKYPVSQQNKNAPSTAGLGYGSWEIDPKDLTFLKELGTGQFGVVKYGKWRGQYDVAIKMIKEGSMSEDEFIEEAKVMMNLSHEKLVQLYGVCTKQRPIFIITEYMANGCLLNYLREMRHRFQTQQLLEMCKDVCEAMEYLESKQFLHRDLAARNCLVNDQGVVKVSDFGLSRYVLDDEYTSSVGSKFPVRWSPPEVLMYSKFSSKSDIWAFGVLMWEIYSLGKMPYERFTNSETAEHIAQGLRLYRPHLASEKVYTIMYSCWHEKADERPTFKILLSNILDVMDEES

Compound | IC50 (BTK [1]) | IC50 (BTK [2])
CC(C)(C)c1noc(C(=O)N[C@@H]2CCCCc3cc(-c4ccnc(NC(=O)[C@@H]5[C@@H]6COC[C@@H]65)c4)ccc32)n1 [Compound 46, N-((R)-2-(2-((1R,5S,6s)-3-oxabicyclo[3.1.0]hexane-6-carboxamido)pyridin-4-yl)-6,7,8,9-tetrahydro-5H-benzo[7]annulen-5-yl)-3-(tert-butyl)-1,2,4-oxadiazole-5-carboxamide] | ≤ 1 nM | 500 to 10000 nM
Cc1cc(-c2ccnc(NC(=O)C3CC3(C)C)c2)ccc1CNC(=O)c1noc(C(C)(C)C)n1 (stereo not shown) [Compound 48, 5-(tert-butyl)-N-(4-(2-(2,2-dimethylcyclopropane-1-carboxamido)pyridin-4-yl)-2-methylbenzyl)-1,2,4-oxadiazole-3-carboxamide] | 1 to 10 nM | > 10000 nM
Cc1cc(-c2ccnc(NC(=O)C3CC3(F)F)c2)ccc1CNC(=O)c1noc(C(C)(C)C)n1 (stereo not shown) [Compound 49, 5-(tert-butyl)-N-(4-(2-(2,2-difluorocyclopropane-1-carboxamido)pyridin-4-yl)-2-methylbenzyl)-1,2,4-oxadiazole-3-carboxamide] | ≤ 1 nM | 500 to 10000 nM
CC(C)(C)c1noc(C(=O)N[C@@H]2CCCCc3cc(-c4ccnc(NC(=O)[C@@H]5C[C@H]5C#N)c4)ccc32)n1 [Compound 51, 3-(tert-butyl)-N-((R)-2-(2-((1R,2R)-2-cyanocyclopropane-1-carboxamido)pyridin-4-yl)-6,7,8,9-tetrahydro-5H-benzo[7]annulen-5-yl)-1,2,4-oxadiazole-5-carboxamide] | ≤ 1 nM | 100 to 500 nM
CC(C)(C)c1noc(C(=O)N[C@@H]2CCCCc3cc(-c4ccnc(NC(=O)[C@@H]5C[C@H]5C(F)(F)F)c4)ccc32)n1 [Compound 52, 3-(tert-butyl)-N-((R)-2-(2-((1R,2R)-2-(trifluoromethyl)cyclo-propane-1-carboxamido)pyridin-4-yl)-6,7,8,9-tetrahydro-5H-benzo[7]annulen-5-yl)-1,2,4-oxadiazole-5-carboxamide] | ≤ 1 nM | 500 to 10000 nM
CC(C)(C)c1nc(C(=O)N[C@H]2CCCOc3cc(-c4ccnc(NC(=O)C5CC5)c4)ccc32)no1 [Compound 53, (S)-5-(tert-butyl)-N-(8-(2-(cyclopropanecarboxamido)pyridin-4-yl)-2,3,4,5-tetrahydrobenzo[b]oxepin-5-yl)-1,2,4-oxadiazole-3-carboxamide] | 10 to 1000 nM | > 10000 nM
CC(C)(C)c1nc(C(=O)N[C@@H]2CCCOc3cc(-c4ccnc(NC(=O)C5CC5)c4)ccc32)no1 [Compound 54, (R)-5-(tert-butyl)-N-(8-(2-(cyclopropanecarboxamido)pyridin-4-yl)-2,3,4,5-tetrahydrobenzo[b]oxepin-5-yl)-1,2,4-oxadiazole-3-carboxamide] | ≤ 1 nM | 100 to 500 nM
CC(C)(C)c1noc(C(=O)NC2CCCOc3cc(-c4ccnc(NC(=O)C5CC5)c4)ccc32)n1 (stereo not shown) [Compound 55, 3-(tert-butyl)-N-(8-(2-(cyclopropanecarboxamido)pyridin-4-yl)-2,3,4,5-tetrahydrobenzo[b]oxepin-5-yl)-1,2,4-oxadiazole-5-carboxamide] | ≤ 1 nM | 500 to 10000 nM
CC(C)c1cc(-c2ccnc(NC(=O)C3CC3)c2)ccc1CNC(=O)c1noc(C(C)(C)C)n1 [Compound 56, 5-(tert-butyl)-N-(4-(2-(cyclopropanecarboxamido)pyridin-4-yl)-2-isopropylbenzyl)-1,2,4-oxadiazole-3-carboxamide] | 1 to 10 nM | > 10000 nM
Cc1c(CNC(=O)c2noc(C(C)(C)C)n2)ccc(-c2cc(NC(=O)C3CC3)ncc2F)c1F [Compound 57, 5-(tert-butyl)-N-(4-(2-(cyclopropanecarboxamido)-5-fluoropyridin-4-yl)-3-fluoro-2-methylbenzyl)-1,2,4-oxadiazole-3-carboxamide] | ≤ 1 nM | 500 to 10000 nM
CC(C)(C)c1noc(C(=O)N[C@@H]2CCCCc3cc(-c4ccnc(NC(=O)C5CC5(F)F)c4)ccc32)n1 (stereo partly drawn) [Compound 58, 3-(tert-butyl)-N-((5R)-2-(2-(2,2-difluorocyclopropane-1-carboxamido)pyridin-4-yl)-6,7,8,9-tetrahydro-5H-benzo[7]annulen-5-yl)-1,2,4-oxadiazole-5-carboxamide] | ≤ 1 nM | 500 to 10000 nM
CC1(c2nc(C(=O)NCc3ccc(-c4ccnc(NC(=O)C5CC5)c4)c(F)c3Cl)no2)CC1 [Compound 59, N-(2-chloro-4-(2-(cyclopropanecarboxamido)pyridin-4-yl)-3-fluorobenzyl)-5-(1-methylcyclopropyl)-1,2,4-oxadiazole-3-carboxamide] | ≤ 1 nM | 500 to 10000 nM
Cc1c(CNC(=O)c2noc(C(C)(C)C)n2)cc(F)c(-c2ccnc(NC(=O)C3CC3)c2)c1F [Compound 61, 5-(tert-butyl)-N-(4-(2-(cyclopropanecarboxamido)pyridin-4-yl)-3,5-difluoro-2-methylbenzyl)-1,2,4-oxadiazole-3-carboxamide] | ≤ 1 nM | 500 to 10000 nM
CC(C)(C)c1nc(C(=O)NC2CCCOc3cc(-c4ccnc(NC(=O)C5CC5)c4)ccc32)no1 (stereo not shown) [Compound 65, 5-(tert-butyl)-N-(8-(2-(cyclopropanecarboxamido)pyridin-4-yl)-2,3,4,5-tetrahydrobenzo[b]oxepin-5-yl)-1,2,4-oxadiazole-3-carboxamide] | ≤ 1 nM | 100 to 500 nM
CC(C)(C)c1nc(C(=O)N[C@@H]2CCCCc3cc(-c4ccnc(NC(=O)C5CC5)c4)ccc32)no1 [Compound 67, (R)-5-(tert-butyl)-N-(2-(2-(cyclopropanecarboxamido)pyridin-4-yl)-6,7,8,9-tetrahydro-5H-benzo[7]annulen-5-yl)-1,2,4-oxadiazole-3-carboxamide] | ≤ 1 nM | ≤ 100 nM
CC(C)(C)c1nc(C(=O)N[C@@H]2CCCCc3cc(-c4ccnc(NC(=O)C5CC5)c4)ccc32)co1 [Compound 68, (R)-2-(tert-butyl)-N-(2-(2-(cyclopropanecarboxamido)pyridin-4-yl)-6,7,8,9-tetrahydro-5H-benzo[7]annulen-5-yl)oxazole-4-carboxamide] | ≤ 1 nM | 500 to 10000 nM
CC(C)(C)c1noc(C(=O)NCc2ccc(-c3ccnc(NC(=O)C4CC4)c3)c(F)c2C(F)(F)F)n1 [Compound 69, 3-(tert-butyl)-N-(4-(2-(cyclopropanecarboxamido)pyridin-4-yl)-3-fluoro-2-(trifluoromethyl)benzyl)-1,2,4-oxadiazole-5-carboxamide] | ≤ 1 nM | 100 to 500 nM
C[C@@H](NC(=O)c1nc(C(C)(C)C)no1)c1cc(F)c(-c2ccnc(NC(=O)C3CC3)c2)cc1Cl [Compound 70, (R)-3-(tert-butyl)-N-(1-(2-chloro-4-(2-(cyclopropanecarboxamido)pyridin-4-yl)-5-fluorophenyl)ethyl)-1,2,4-oxadiazole-5-carboxamide] | ≤ 1 nM | 500 to 10000 nM
Cc1c([C@@H](C)NC(=O)c2noc(C(C)(C)C)n2)ccc(-c2ccnc(NC(=O)C3CC3)c2)c1F [Compound 71, (R)-5-(tert-butyl)-N-(1-(4-(2-(cyclopropanecarboxamido)pyridin-4-yl)-3-fluoro-2-methyphenyl)ethyl)-1,2,4-oxadiazole-3-carboxamide] | ≤ 1 nM | 500 to 10000 nM
CC(C)(C)c1nc(C(=O)NCc2ccc(-c3ccnc(NC(=O)C4CC4)c3)cc2C(C)(C)C)no1 [Compound 72] | 1 to 10 nM | > 10000 nM
CCc1cc(-c2ccnc(NC(=O)C3CC3)c2)ccc1CNC(=O)c1noc(C(C)(C)C)n1 [Compound 73, 5-(tert-butyl)-N-(4-(2-(cyclopropanecarboxamido)pyridin-4-yl)-2-ethylbenzyl)-1,2,4-oxadiazole-3-carboxamide] | ≤ 1 nM | 500 to 10000 nM
C[C@@H](NC(=O)c1noc(C(C)(C)C)n1)c1cc(F)c(-c2ccnc(NC(=O)C3CC3)c2)cc1Cl [Compound 76, (R)-5-(tert-butyl)-N-(1-(2-chloro-4-(2-(cyclopropanecarboxamido)pyridin-4-yl)-5-fluorophenyl)ethyl)-1,2,4-oxadiazole-3-carboxamide] | ≤ 1 nM | 500 to 10000 nM
CC(C)(C)c1nc(C(=O)NCc2ccc(-c3ccnc(NC(=O)C4CC4)c3)cc2C2CC2)no1 [Compound 77, 5-(tert-butyl)-N-(4-(2-(cyclopropanecarboxamido)pyridin-4-yl)-2-cyclopropylbenzyl)-1,2,4-oxadiazole-3-carboxamide] | ≤ 1 nM | 100 to 500 nM
